Target: T1, human PAH with the R408W mutation (Homo sapiens, UniProt P00439, R408W)
T1 construct: expressed in transfected cells
T1 sequence (P00439 1-452 R408W): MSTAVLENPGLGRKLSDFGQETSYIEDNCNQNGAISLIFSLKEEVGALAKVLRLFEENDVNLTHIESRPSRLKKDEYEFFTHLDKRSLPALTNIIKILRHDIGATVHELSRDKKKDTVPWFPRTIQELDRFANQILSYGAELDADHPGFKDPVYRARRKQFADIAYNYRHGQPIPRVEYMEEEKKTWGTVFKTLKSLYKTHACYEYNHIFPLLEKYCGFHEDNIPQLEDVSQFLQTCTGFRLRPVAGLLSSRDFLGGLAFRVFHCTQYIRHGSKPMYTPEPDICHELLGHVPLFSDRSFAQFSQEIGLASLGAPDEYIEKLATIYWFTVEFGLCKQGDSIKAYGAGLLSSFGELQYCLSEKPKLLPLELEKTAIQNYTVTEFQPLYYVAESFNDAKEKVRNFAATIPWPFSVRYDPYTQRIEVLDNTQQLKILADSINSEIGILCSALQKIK
Assay: Cell Based Phenylalanine Flux Assay;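 also: after compound treatment, cells received sepiapterin plus isotope-labelled Phenylalanine for 4 hours, then labelled Tyrosine in the medium was quantified, 10-point 2-fold dilution series run in duplicate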
Conditions: A375 cells expressing R408W PAH; 24 hrs with compound, then 20 µM sepiapterin and 800 µM 13C9,15N-Phenylalanine for 4 hours; 13C-Tyrosine by LC-MS; average where tested multiple times; read-out: AC50

Row | Structure (SMILES) | AC50 [µM]
1 | O=C(Cc1nncs1)N1CCc2nc[nH]c2C1c1cc2ccccn2n1 (centres unmarked) | 1 to 5
2 | Cc1nnc(C(=O)N2CCc3[nH]cnc3C2c2cc3c(F)cccn3n2)s1 (centres unmarked) | 1 to 5
3 | CC(C)(C)c1nnc(C(=O)N2CCc3[nH]cnc3C2c2cc3cc(F)ccn3n2)o1 (centres unmarked) | 1 to 5
4 | Cc1cccn2nc(C3c4nc[nH]c4CCN3C(=O)c3cc(C(C)(C)C)nn3C)cc12 (centres unmarked) | > 5
5 | Cc1nc(-c2ccccn2)oc1C(=O)N1CCc2[nH]cnc2C1c1cc2ccccn2n1 (centres unmarked) | > 5
6 | Cc1cccn2nc(C3c4nc[nH]c4CCN3c3nnc(-c4cccnn4)o3)cc12 (centres unmarked) | 1 to 5
7 | c1cc(C2CC2)c2cc(C3c4nc[nH]c4CCN3c3nnc(-c4cnccn4)o3)nn2c1 (centres unmarked) | 1 to 5

The next lines start with the values.

Row | AC50 [µM] | Structure (SMILES)
8 | 1 to 5 | FC(F)c1cccc2cc(C3c4nc[nH]c4CCN3c3nnc(C4CCC4)o3)nn12 (centres unmarked)
9 | 1 to 5 | Cn1cc(N2CCc3[nH]cnc3C2c2cc3c(F)cccn3n2)cn1 (centres unmarked)
10 | 1 to 5 | O=C(c1ncco1)N1CCc2[nH]cnc2C1c1cc2ccccn2n1 (centres unmarked)

Same assay, conditions: A375 cells expressing human PAH R408W; 24 hrs compound incubation; 13C-Tyrosine by LC-MS; average where tested multiple times; read-out: AC50

Row | AC50 [µM] | Structure (SMILES)
11 | < 0.5 | O=C(c1nnc(-c2ccccn2)o1)N1CCc2[nH]cnc2[C@H]1c1cc2c(Br)cccn2n1 [Example 1911, (S)-(4-(4-bromopyrazolo[1,5-a]pyridin-2-yl)-1,4,6,7-tetrahydro-5H-imidazo[4,5-c]pyridin-5-yl)(5-(pyridin-2-yl)-1,3,4-oxadiazol-2-yl)methanone]
12 | > 5 | Cc1cccc2cc([C@H]3c4nc[nH]c4CCN3c3ncc(C(F)(F)F)cn3)nn12 [Example 1803, (R)-4-(7-methylpyrazolo[1,5-a]pyridin-2-yl)-5-(5-(trifluoromethyl)pyrimidin-2-yl)-4,5,6,7-tetrahydro-1H-imidazo[4,5-c]pyridine]
13 | 0.5 to 1 | CC(F)(F)c1nnc(N2CCc3[nH]cnc3[C@H]2c2cc3c(F)cccn3n2)o1 [Example 2197, (S)-2-(1,1-difluoroethyl)-5-(4-(4-fluoropyrazolo[1,5-a]pyridin-2-yl)-1,4,6,7-tetrahydro-5H-imidazo[4,5-c]pyridin-5-yl)-1,3,4-oxadiazole]
14 | > 5 | O=C(c1cnc(-c2ccccn2)o1)N1CCc2[nH]cnc2[C@@H]1c1cc2c(C(F)(F)F)cccn2n1 [Example 2037, (R)-(2-(pyridin-2-yl)oxazol-5-yl)(4-(4-(trifluoromethyl)pyrazolo[1,5-a]pyridin-2-yl)-1,4,6,7-tetrahydro-5H-imidazo[4,5-c]pyridin-5-yl)methanone]
15 | > 5 | FC(F)(F)c1cccn2nc([C@H]3c4nc[nH]c4CCN3c3nnc(-c4ccncn4)o3)cc12 [Example 2163, (R)-2-(pyrimidin-4-yl)-5-(4-(4-(trifluoromethyl)pyrazolo[1,5-a]pyridin-2-yl)-1,4,6,7-tetrahydro-5H-imidazo[4,5-c]pyridin-5-yl)-1,3,4-oxadiazole]

Same assay, conditions: A375 cells expressing human R408W PAH; 24 hrs compound incubation; 13C-Tyrosine by LC-MS; average where tested multiple times; read-out: AC50

Row | Structure (SMILES) | AC50 [µM]
16 | O=C(c1nnc(-c2ncccc2F)o1)N1CCc2[nH]cnc2[C@@H]1c1cc2c(OC(F)F)cccn2n1 [Example 1656, (R)-(4-(4-(difluoromethoxy)pyrazolo[1,5-a]pyridin-2-yl)-6,7-dihydro-1H-imidazo[4,5-c]pyridin-5(4H)-yl)(5-(3-fluoropyridin-2-yl)-1,3,4-oxadiazol-2-yl)methanone] | > 5
17 | O=C(c1nnc(C2CC2)o1)N1CCc2[nH]cnc2[C@H]1c1cc2c(C(F)F)cccn2n1 [Example 980, (S)-(5-cyclopropyl-1,3,4-oxadiazol-2-yl)(4-(4-(difluoromethyl)pyrazolo[1,5-a]pyridin-2-yl)-6,7-dihydro-1H-imidazo[4,5-c]pyridin-5(4H)-yl)methanone] | < 0.5
18 | COc1cccn2nc([C@H]3c4nc[nH]c4CCN3C(=O)c3nnc(C(C)(C)F)o3)cc12 [Example 970, (R)-(5-(2-fluoropropan-2-yl)-1,3,4-oxadiazol-2-yl)(4-(4-methoxypyrazolo[1,5-a]pyridin-2-yl)-6,7-dihydro-1H-imidazo[4,5-c]pyridin-5(4H)-yl)methanone] | > 5
19 | Cc1cc(C(=O)N2CCc3[nH]cnc3[C@@H]2c2cc3c(C)cccn3n2)n(C)n1 [Example 901, (R)-(1,3-dimethyl-1H-pyrazol-5-yl)(4-(4-methylpyrazolo[1,5-a]pyridin-2-yl)-6,7-dihydro-1H-imidazo[4,5-c]pyridin-5(4H)-yl)methanone] | > 5
20 | Cc1cccn2nc([C@@H]3c4nc[nH]c4CCN3C(=O)c3oc(-c4cncn4C)nc3C(F)F)cc12 [Example 891, (S)-(4-(difluoromethyl)-2-(1-methyl-1H-imidazol-5-yl)oxazol-5-yl)(4-(4-methylpyrazolo[1,5-a]pyridin-2-yl)-6,7-dihydro-1H-imidazo[4,5-c]pyridin-5(4H)-yl)methanone] | < 0.5
21 | Cc1ncoc1C(=O)N1CCc2[nH]cnc2[C@@H]1c1cc2c(F)cccn2n1 [Example 775, (R)-(4-(4-fluoropyrazolo[1,5-a]pyridin-2-yl)-6,7-dihydro-1H-imidazo[4,5-c]pyridin-5(4H)-yl)(4-methyloxazol-5-yl)methanone] | > 5
22 | Cc1nc([C@@H](C)O)oc1C(=O)N1CCc2[nH]cnc2[C@@H]1c1cc2c(F)cccn2n1 [Example 727, ((R)-4-(4-fluoropyrazolo[1,5-a]pyridin-2-yl)-6,7-dihydro-1H-imidazo[4,5-c]pyridin-5(4H)-yl)(2-((R)-1-hydroxyethyl)-4-methyloxazol-5-yl)methanone] | 1 to 5
23 | Cc1nn(C)cc1-c1nnc(C(=O)N2CCc3[nH]cnc3[C@H]2c2cc3c(F)cccn3n2)o1 [Example 846, (S)-(5-(1,3-dimethyl-1H-pyrazol-4-yl)-1,3,4-oxadiazol-2-yl)(4-(4-fluoropyrazolo[1,5-a]pyridin-2-yl)-6,7-dihydro-1H-imidazo[4,5-c]pyridin-5(4H)-yl)methanone] | < 0.5
24 | O=C(c1nnc(-c2ccn(C(F)F)n2)o1)N1CCc2[nH]cnc2[C@H]1c1cc2c(C(F)F)cccn2n1 [Example 1377, (S)-(5-(1-(difluoromethyl)-1H-pyrazol-3-yl)-1,3,4-oxadiazol-2-yl)(4-(4-(difluoromethyl)pyrazolo[1,5-a]pyridin-2-yl)-6,7-dihydro-1H-imidazo[4,5-c]pyridin-5(4H)-yl)methanone] | < 0.5

Further lines, results first:

Row | AC50 [µM] | Structure (SMILES)
25 | < 0.5 | Cn1nc(Cl)nc1C(=O)N1CCc2[nH]cnc2[C@H]1c1cc2cccc(Cl)n2n1 [Example 1142, (S)-(3-chloro-1-methyl-1H-1,2,4-triazol-5-yl)(4-(7-chloropyrazolo[1,5-a]pyridin-2-yl)-6,7-dihydro-1H-imidazo[4,5-c]pyridin-5(4H)-yl)methanone]
26 | 1 to 5 | O=C(c1nnc(-c2ncccc2F)o1)N1CCc2[nH]cnc2[C@@H]1c1cc2cccc(F)n2n1 [Example 1458, (R)-(4-(7-fluoropyrazolo[1,5-a]pyridin-2-yl)-6,7-dihydro-1H-imidazo[4,5-c]pyridin-5(4H)-yl)(5-(3-fluoropyridin-2-yl)-1,3,4-oxadiazol-2-yl)methanone]
27 | < 0.5 | Cc1cccc(-c2nnc(C(=O)N3CCc4[nH]cnc4[C@H]3c3cc4cccc(C(F)F)n4n3)o2)n1 [Example 1594, (S)-(4-(7-(difluoromethyl)pyrazolo[1,5-a]pyridin-2-yl)-6,7-dihydro-1H-imidazo[4,5-c]pyridin-5(4H)-yl)(5-(6-methylpyridin-2-yl)-1,3,4-oxadiazol-2-yl)methanone]
28 | < 0.5 | O=C(c1ocnc1C(F)(F)F)N1CCc2[nH]cnc2[C@H]1c1cc2cccc(Cl)n2n1 [Example 1172, (S)-(4-(7-chloropyrazolo[1,5-a]pyridin-2-yl)-6,7-dihydro-1H-imidazo[4,5-c]pyridin-5(4H)-yl)(4-(trifluoromethyl)oxazol-5-yl)methanone]
29 | 1 to 5 | O=C(c1nnc(-c2cnn(C(F)F)c2)o1)N1CCc2[nH]cnc2[C@@H]1c1cc2cccc(Cl)n2n1 [Example 1121, (R)-(4-(7-chloropyrazolo[1,5-a]pyridin-2-yl)-6,7-dihydro-1H-imidazo[4,5-c]pyridin-5(4H)-yl)(5-(1-(difluoromethyl)-1H-pyrazol-4-yl)-1,3,4-oxadiazol-2-yl)methanone]
30 | < 0.5 | CC(C)(O)c1nc(C(F)F)c(C(=O)N2CCc3[nH]cnc3[C@H]2c2cc3cccc(C(F)(F)F)n3n2)o1 [Example 1156, (S)-(4-(difluoromethyl)-2-(2-hydroxypropan-2-yl)oxazol-5-yl)(4-(7-(trifluoromethyl)pyrazolo[1,5-a]pyridin-2-yl)-6,7-dihydro-1H-imidazo[4,5-c]pyridin-5(4H)-yl)methanone]
31 | < 0.5 | Cc1cccc2cc([C@@H]3c4nc[nH]c4CCN3C(=O)c3cc(C(F)F)nn3C)nn12 [Example 1388, (S)-(3-(difluoromethyl)-1-methyl-1H-pyrazol-5-yl)(4-(7-methylpyrazolo[1,5-a]pyridin-2-yl)-6,7-dihydro-1H-imidazo[4,5-c]pyridin-5(4H)-yl)methanone]
32 | 1 to 5 | Cn1cc(-c2nnc(C(=O)N3CCc4[nH]cnc4[C@H]3c3cc4ccccn4n3)o2)c(C(F)(F)F)n1 [Example 678, (S)-(5-(1-methyl-3-(trifluoromethyl)-1H-pyrazol-4-yl)-1,3,4-oxadiazol-2-yl)(4-(pyrazolo[1,5-a]pyridin-2-yl)-6,7-dihydro-1H-imidazo[4,5-c]pyridin-5(4H)-yl)methanone]

Reference: patent US20230365592A1 (Agios Pharmaceuticals, Inc., priority 2022, published 2023)
